One data set has as its system SMN protein. Put plainly: SMN protein assay (MSD) in SMA patient fibroblasts (GM03813). Type of data set: cell-based, human. Put shortly:
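SMA patient fibroblasts GM03813 (7000 cells/well) treated 48 h with compounds from 2.5 μM to 0.6 nM. Lysate SMN protein quantified by MSD immunoassay against an SMN standard curve (1 to 19.5 μg/ml) on each plate, giving absolute amounts.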

For data set [1], the system named is MDR1-MDCK cell monolayers. Put plainly: MDCK-MDR1 permeability assay, blood-brain-barrier penetration potential.
Protocol: (§1) Experimental Procedure: MDR1-MDCK cell monolayers are grown to confluence on collagen-coated, microporous membranes in 12-well assay plates. The permeability assay buffer is Hanks' balanced salt solution containing 10 mM HEPES and 15 mM glucose at a pH of 7.4. The buffer in the receiver chamber also contained 1% bovine serum albumin. The dosing solution concentration is 5 μM of test article in the assay buffer. Cell monolayers are dosed on the apical side (A-to-B) or basolateral side (B-to-A) and incubated at 37° C. with 5% CO2 in a humidified incubator. Samples are taken from the donor and receiver chambers at 120 minutes. Each determination is performed in duplicate. The flux of lucifer yellow is also measured post-experimentally for each monolayer to ensure no damage was inflicted to the cell monolayers during the flux period. All samples are assayed by LC-MS/MS using electrospray ionization.
(§2) Analytical Method: Liquid Chromatography • Column: Waters ACQUITY UPLC BEH Phenyl 30×2.1 mm, 1.7 μm • M.P. Buffer: 25 mM ammonium formate buffer, pH 3.5 • Aqueous Reservoir (A): 90% water, 10% buffer • Organic Reservoir (B): 90% acetonitrile, 10% buffer • Flow Rate: 0.7 mL/minute • Gradient Program:
(§3) • Total Run Time: 1.00 minute • Autosampler: 2 μL injection volume • Wash1: water/methanol/2-propanol:1/1/1; with 0.2% formic acid • Wash2: 0.1% formic acid in water • Brain Penetration • Potential Classification: A-B Papp≥3.0 and Efflux Ratio<3.0: High • A-B Papp≥3.0 and 10>Efflux Ratio≥3.0: Moderate • A-B Papp≥3.0 and Efflux Ratio≥10: Low • A-B Papp<3.0: Low
The subject of data set [2] is MDR1-MDCK cell monolayers. To be noted: dog, MDCK-MDR1, 120 min, 5 μM, pH 7.4.
Protocol: as §1, §2, §3
A further data set concerns SMN FL and SMN Δ7. Put plainly: Quantitative splicing assay (SMN) in SMA patient fibroblasts (GM03813). Type of data set: cell-based. The following applies: Homo sapiens, Fibroblast; class symbol; read-out: SMN2 Splicing FL EC50 (nM)*. As for the experimental part: Spinal muscular atrophy (SMA) patient fibroblasts (GM03813, Coriell) are plated in 96-well plates at 50,000 cells/well. […] Treated cells are lysed and cDNA synthesized using the Fast Advanced Cells-to-Ct kit (Thermofisher A35378) according to the manufacturer's instructions. 2 μL of each cDNA are used in qPCR reactions. […] Reactions are run in a Quant Studio 6 qPCR instrument with default settings.

The subject of the next data set is MDR1. Put plainly: in vitro. The following applies: dog; for Papp A→B at 120 min, 5 μM: MDCK-MDR1, pH 7.4, MDCK-MDR1: Papp A-B (10^−6, cm/s); for Papp B→A at 120 min, 5 μM: MDCK-MDR1, pH 7.4, MDCK-MDR1: Papp B-A (10^−6, cm/s).
Another data set has as its system MDR1 (P-gp). Put plainly: MDCK-MDR1 permeability assay, blood-brain-barrier penetration potential. The following applies: dog, MDCK-MDR1, pH 7.4, MDCK-MDR1 Efflux Ratio.

Experimental findings from patent US11964971B2, “Methods and compositions for modulating splicing” (Skyhawk Therapeutics, Inc., priority 2019, dated 2024) are described below.

Where two headings read alike, the source gives them in different places.

Protocol for MDR1 (P-gp): as §1, §2, §3

On to “2-(5-(((1S,2S,3R,5R)-2-fluoro-8-azabicyclo[3.2.1]octan-3-yl)(methyl)aniino)pyrazin-2-yl)-5-(6-methoxypyrimidin-4-yl)phenol [Compound 34E1]”, for which the concentration giving a half-maximal response (EC50) (as a rule, the concentration needed to bring the measured effect to its halfway point) in the data set on SMN protein lay in the range of 101 to 500 nM. Also, in data set [1] (A-B), the “MDCK-MDR1: % Recov A-B (%)” value came out at 20% and the “MDCK-MDR1: Papp A-B (10^−6, cm/s)” value is 2.78 10^−6, cm/s. Moreover, in data set [1] (B-A), the “MDCK-MDR1: % Recov B-A (%)” value was determined as 60% and the “MDCK-MDR1: Papp B-A (10^−6, cm/s)” value is given as 8.79 10^−6, cm/s. In addition, the “MDCK-MDR1 Efflux Ratio” value in data set [1] (MDCK-MDR1) is 3.
Compound `Cn1cc(-c2ccc(-c3cnc(N(C4CC4)[C@@H]4CC5CC[C@H](N5)[C@@H]4F)cn3)c(O)c2)cn1` (single isomer, unassigned) [Compound 49E2] displayed an EC50 with SMN protein of 501 to 10000 nM. In data set [2], the “MDCK-MDR1: % Recov A-B (%)” value was determined as 48%; the “MDCK-MDR1: % Recov B-A (%)” value is 63%; the “MDCK-MDR1: Papp A-B (10^−6, cm/s)” value is 4.55 10^−6, cm/s; the “MDCK-MDR1: Papp B-A (10^−6, cm/s)” value is 34.9 10^−6, cm/s. Besides, the “MDCK-MDR1 Efflux Ratio” value in data set [1] (dog, MDCK-MDR1, 120 min, 5 μM, pH 7.4) is 8.
Consider `CN(c1cnc(-c2cc(F)c(-c3cn[nH]c3)cc2O)cn1)[C@@H]1CC2CC[C@H](N2)[C@@H]1F` (single isomer, unassigned) [Compound 40E1], for which the EC50 with SMN FL and SMN Δ7 fell in the range of 51 to 100 nM. In addition, the EC50 in the data set with SMN protein was 16 to 50 nM. Also, in data set [2], the “MDCK-MDR1: % Recov A-B (%)” value stood at 54% and the “MDCK-MDR1: % Recov B-A (%)” value is reported as 75%. In the data set on MDR1, the apical-to-basolateral permeability (Papp A→B) (commonly the apparent permeability from the apical to the basolateral side of a cell layer) at 120 min, 5 μM is 6.63 ×10⁻⁶ cm/s and the apparent permeability from basolateral to apical (Papp B→A) (commonly the apparent permeability from the basolateral to the apical side of a cell layer) at 120 min, 5 μM was 39.2 ×10⁻⁶ cm/s. Moreover, in the data set with MDR1 (P-gp), the efflux ratio (in general, the permeability from basolateral to apical divided by that in the opposite direction, in the common usage) at 120 min, 5 μM is 6.
As for `CN(c1cnc(-c2ccc(-c3cn[nH]c3)cc2O)cn1)[C@H]1CC2CCC[C@@H](N2)[C@H]1F` (single isomer, unassigned) [Compound 6E2], in the data set on SMN FL and SMN Δ7, the EC50 lay within 16 to 50 nM. This compound registered an EC50 in the data set with SMN protein of 0.01 to 15 nM. Also, in data set [2], the “MDCK-MDR1: % Recov A-B (%)” value is on record as 70% and the “MDCK-MDR1: % Recov B-A (%)” value is 58%. In the data set on MDR1, this compound displayed a Papp A→B at 120 min, 5 μM of 3.67 ×10⁻⁶ cm/s and a Papp B→A at 120 min, 5 μM of 22.2 ×10⁻⁶ cm/s. Moreover, the efflux ratio at 120 min, 5 μM with MDR1 (P-gp) was 6.
With `COc1cc(-c2ccc(-c3cnc(N(C)[C@@H]4CC5COC[C@H](N5)[C@@H]4F)cn3)c(O)c2)ccn1` (single isomer, unassigned) [Compound 81E1], the EC50 in the data set with SMN FL and SMN Δ7 fell in the range of 501 to 10000 nM. The compound further registered an EC50 in the data set with SMN protein of 501 to 10000 nM. Moreover, in data set [2], the “MDCK-MDR1: % Recov A-B (%)” value is recorded as 28% and the “MDCK-MDR1: % Recov B-A (%)” value was found to be 47%. For the same compound, in the data set with MDR1, the Papp A→B at 120 min, 5 μM is 2.69 ×10⁻⁶ cm/s and the Papp B→A at 120 min, 5 μM was 3.08 ×10⁻⁶ cm/s. Moreover, the efflux ratio at 120 min, 5 μM with MDR1 (P-gp) is 1.
With `COc1cc(-c2ccc(-c3cnc(N(C)[C@H]4C[C@@H]5COCC(N5)[C@H]4F)cn3)c(O)c2)ccn1` (single isomer, unassigned) [Compound 81E2], the half-maximal effective concentration (EC50) in the data set with SMN FL and SMN Δ7 lay in the range of 101 to 500 nM. Also, the EC50 in the data set with SMN protein fell in the range of 501 to 10000 nM. For the same compound, in data set [2], the “MDCK-MDR1: % Recov A-B (%)” value stood at 42% and the “MDCK-MDR1: % Recov B-A (%)” value is recorded as 77%. For the same compound, in the data set with MDR1, the Papp A→B at 120 min, 5 μM is 2 ×10⁻⁶ cm/s and the Papp B→A at 120 min, 5 μM came out at 3.4 ×10⁻⁶ cm/s. Also, in the data set on MDR1 (P-gp), the efflux ratio at 120 min, 5 μM is 2.
As for `COc1cc(-c2ccc(-c3cnc(N(C)[C@@H]4CC5CC[C@H](N5)[C@@H]4F)cn3)c(O)c2)cnn1` (single isomer, unassigned) [Compound 26E1], the EC50 in the data set with SMN FL and SMN Δ7 fell in the range of 101 to 500 nM. The compound also returned an EC50 in the data set on SMN protein of 501 to 10000 nM. In addition, in data set [2], the “MDCK-MDR1: % Recov A-B (%)” value was determined as 45% and the “MDCK-MDR1: % Recov B-A (%)” value is given as 74%. In the data set on MDR1, this compound gave a Papp A→B at 120 min, 5 μM of 5.06 ×10⁻⁶ cm/s and a Papp B→A at 120 min, 5 μM of 24.4 ×10⁻⁶ cm/s. Further, the efflux ratio at 120 min, 5 μM in the data set with MDR1 (P-gp) was found to be 5.
Consider `CN(c1cnc(-c2ccc(-c3ccn(C)c(=O)c3)cc2O)cn1)[C@H]1C[C@@H]2CCCC(N2)[C@H]1F` (single isomer, unassigned) [Compound 83E2], for which, in the data set on SMN FL and SMN Δ7, the EC50 is 101 to 500 nM. Also, the EC50 in the data set on SMN protein fell in the range of 16 to 50 nM. For the same compound, in data set [2], the “MDCK-MDR1: % Recov A-B (%)” value was found to be 106% and the “MDCK-MDR1: % Recov B-A (%)” value worked out at 118%. In the data set with MDR1, the Papp A→B at 120 min, 5 μM came to 1.28 ×10⁻⁶ cm/s and the Papp B→A at 120 min, 5 μM was determined as 45 ×10⁻⁶ cm/s. For the same compound, the efflux ratio at 120 min, 5 μM in the data set with MDR1 (P-gp) is 36.
